Measured values as given in paper PMC10056899, “Neuroprotective and Antiherpetic Properties of Polyphenolic Compounds from Maackia amurensis Heartwood” (Molecules, 2023).
Several values for one entry are separate records, joined by “and”; a condition that tells them apart may be missing. Identical values can stand only once.

What was measured:
HSV-1 = assay: Anti-HSV-1 activity, HSV-1 DNA level by real-time PCR (RT-PCR); type: cell-based, HSV-1 strain L2; conditions: 5 µg/mL, simultaneous treatment, 48 h; for 1, 4 and Maxar given on average
Procedure: The anti-HSV-1 activity of the polyphenolic compounds from M. amurensis was also studied using the real-time PCR (RT-PCR) technique (Figure 5 and Table S69, Supplementary Data). Vero cells were simultaneously infected with 100 TCD50/mL HSV-1 and treated with polyphenolic compounds 1–6 at concentrations of 50 and 5 μg/mL. After 48 h of cell incubation, viral DNA was extracted from the supernatants, and the relative level of HSV-1 DNA was determined using RT-PCR. The effect of stilbenes on the relative level of viral DNA was assessed by 2^−ΔCt method and reported as fold reduction relative to virus control, to which the value of 1.0 was assigned.
For the viral DNA extraction assay, Vero cells grown in 96-well plates were infected with HSV-1 and simultaneously treated with polyphenolic compounds and incubated at 37 °C in a CO2-incubator for 48 h. After incubation, the culture media and the cells scraped from the plate were transferred to centrifuge tubes. The cell debris was removed by centrifugation at 300× g for 10 min. Then, supernatant was collected and kept at −20 °C. The HSV-1 DNA was extracted from supernatant by using the AmpliSens® DNA-sorb-AM (K1-12-100-CE) nucleic acid extraction kit (Moscow, Russia) according to the manufacturer′s instructions. […]
The DNA HSV was detected in the obtained DNA samples using the AmpliSens® HSV I, II-FRT-100F PCR kit (Moscow, Russia) on a real-time PCR instrument Rotor-Gene Q (Qiagen, Hilden, Nordrhein-Westfalen, Germany) according to the manufacturer′s instructions. […] In the real-time PCR, the amplified product is detected with the use of fluorescent dyes. […] The threshold cycle number, Ct, was measured as the PCR cycle, where the amount of amplified target reached the threshold value. The reduction in the HSV-1 DNA levels in culture supernatants was assessed by the change in the threshold cycle (ΔCt) (Equation (4)):(4) ΔCt=Cttv−Ctcv where: • Cttv is the average Ct value for the infected samples after treatment with polyphenolic compounds; • Ctcv corresponds to the average Ct value for the virus control. […]

[1] = Cytotoxicity against Vero cells (MTT assay); type: cell-based; conditions: African green monkey (Chlorocebus sp.)
Procedure: The HSV-1 strain L2 and Vero cell culture (kidney epithelial cells of the African green monkey Chlorocebus sp.) were obtained from the N.F. Gamaleya Federal Research Centre for Epidemiology and Microbiology (Moscow, Russia). HSV-1 was grown in Vero cells, using Dulbecco′s Modified Eagle′s Medium (DMEM, Biolot, St. Petersburg, Russia) supplemented with 10% fetal bovine serum (FBS, Biolot, St. Petersburg, Russia) and 100 U/mL of gentamycin (Dalkhimpharm, Khabarovsk, Russia), at 37 °C in a CO2 incubator. In the maintenance medium, the FBS concentration was decreased to 1%.
The tested compounds were dissolved in DMSO (Sigma, St. Louis, MO, USA) at a concentration 10 mg/mL and stored at −20 °C. For cytotoxicity and anti-HSV-1 activity determination, the stock solutions were diluted with DMEM so that the final concentration of DMSO was 0.5%.
The cytotoxicity evaluation of the studied compounds was performed using the MTT assay, as described previously. In brief, confluent Vero cells in 96-well microplates (1 × 10^4 cells/well) were incubated with tested compounds at various concentrations (1–500 μg/mL) at 37 °C for 48 h (5% CO2). Untreated cells were used as controls. Then, MTT solution (methylthiazolyltetrazolium bromide, Sigma, St. Louis, MO, USA) was added to cells at a concentration of 5 mg/mL and the cells were incubated at 37 °C for 2 h. After dissolution of formazan crystals, optical densities were read at 540 nm (Labsystems Multiskan RC, Vantaa, Finland). […] [42]. Experiments were performed in triplicate and repeated three times.

[2] = DPPH radical scavenging assay; conditions: 20 min; for IC50: read-out: DPPH Scavenging Effect IC50

For COc1ccc([C@@H]2COc3cc(O)ccc3[C@H]2c2c(O)cc(O)cc2/C=C/c2ccc(O)c(O)c2)c(O)c1 [Compound 1], the “Reduction of relative level of HSV-1 DNA relative to virus control” value (HSV-1) was roughly 1.3 log10, the CC50 at 48 h [1] was 162 µg/mL and 316 µM and the “DPPH Scavenging Effect IC50” value [2] was 2.25 ± 0.25 µg. It also gave an IC50 [2] of 4.3 ± 0.5 µM.
For Oc1ccc(/C=C/c2cc(O)cc3c2[C@H](c2cc(O)cc(O)c2)[C@@H](c2ccc(O)c(O)c2)O3)cc1 [Compound 4, scirpusin A], the “Reduction of relative level of HSV-1 DNA relative to virus control” value (HSV-1) was roughly 1.3 log10, the CC50 at 48 h [1] was 199 µg/mL and 424 µM and the “DPPH Scavenging Effect IC50” value [2] was 1.50 ± 0.19 µg. It also gave an IC50 [2] of 3.2 ± 0.4 µM.
